Results: PubChem BioAssay AID2060505 (Molecular Pharmacology Branch, DTP, NCI, 2025)

System: 633275-114-R-J1-PDC complex spheroids, viability
Assay: Anticancer human tumor 633275-114-R-J1-PDC patient-derived endometrial adenocarcinoma cell line growth inhibition [GQUAD]
Conditions: for IC50: curve of first compound; for viability, T/C: stronger effect = lower value; active = viability on the fitted dose curve at most 10% of control; inactive = the rest
Text: DNA G-quadruplex Stabilizer Agents in Combinations in Complex Spheroids
A high-throughput screen of multi-cell type tumor spheroids was designed to identify active combinations of DNA G-quadruplex stabilizer agents and targeted small molecules. Complex spheroids include a stromal component modeled by human endothelial cells (HUVEC) and fibroblasts modeled by human mesenchymal stem cells (MSCs). The concentration ranges selected for each drug and investigational agent were based upon clinically achievable concentrations if the clinical Cmax of the agent was known.
Compounds. The drugs and investigational agents: pidnarulex (CX-5461; NSC782164), APTO-253 (NSC789042), BRACO-19 (NSC847499), peposertib (NSC802822), ceralasertib (NSC780249), elimusertib (NSC800525), camonsertib (NSC841442), AZD-1390 (NSC803789), olaparib (NSC753686), talazoparib (NSC767125), ART-558 (NSC835418), sotorasib (NSC818433), MRTX-1133 (NSC836407), SN-38 (NSC673596), topotecan (NSC609699), etoposide (NSC141540), doxorubicin (NSC123127), gemcitabine (NSC613327), 5-fluorouracil (NSC19893), paclitaxel (NSC125973), vemurafenib (NSC761431), panobinostat (NSC761190), R-306465 (JNJ-16241199; NSC773264), adavosertib (NSC754352), TP-3654 (NSC805149), carboplatin (NSC241240), KSQ-4279 (NSC840948), and staurosporine (NSC755774) were obtained from the National Cancer Institute (NCI) Developmental Therapeutics Program Chemical Repository (34). The FDA-approved anticancer drug set is available from the NCI Developmental Therapeutics Program. […] The stock solutions were prepared in dimethyl sulfoxide (DMSO, Sigma-Aldrich, St. Louis, MO, cat. D2650) at 800-fold the tested concentration and stored at -70 degrees C prior to their use. All drugs and investigational agents were tested over a range starting from a high concentration at or near the clinical Cmax and decreasing in half-log increments. If the clinical Cmax for an agent had not been determined, the highest concentration tested was 10 microM.
2.3 Cell Culture. All cells were maintained in an incubator at 37 degrees C and 5% CO2 with 95% humidity. The PDC lines were cultured according to standard operating procedures established by the NCI PDMR. All PDCs were thawed and cultured in Matrigel-coated flasks prepared with a working solution of 1X Ham's F-12 nutrient mix, without supplementation (Invitrogen, cat. 11765054), 100 U/mL penicillin-streptomycin (Invitrogen, cat. 15140122), and 2.5% Matrigel (Corning Inc., cat. 354248) for the first three passages. The 857933-349-R-J2-PDC line was cultured in 6C/Colon 1B media, which includes advanced DMEM/F-12 (Thermo Fisher Scientific, cat. 12634028), 10 mM HEPES (Thermo Fisher Scientific, cat. 15630080), 1X GlutaMAX supplement (Thermo Fisher Scientific, cat. 35050061), 0.1 mg/mL primocin (InvivoGen, cat. ant-pm-2), 10% defined fetal bovine serum, heat inactivated (HyClone Laboratories Inc., cat. SH30070.03HI), 50% L-WRN conditioned media (ATCC, cat. CRL-3276), 1.25 mM N-Acetyl-L-cysteine (Sigma-Aldrich, cat. A9165), 10 mM nicotinamide (Sigma-Aldrich, cat. N0636), 1X B-27 supplement (Thermo Fisher Scientific, cat. 17504044), 1X N-2 supplement (Thermo Fisher Scientific, cat. 17502048), 10 microM Y-27632 dihydrochloride (Tocris Bioscience, cat. 1254), and 50 ng/mL human EGF recombinant protein (Thermo Fisher Scientific, cat. PHG0311). The 485176-168-R4-J1-PDC line was cultured in Panc media, which includes all 6C/Colon 1B media components plus 100 ng/mL human FGF-10 (Thermo Fisher Scientific, cat. 100-26), 500 nM SB-431542 (Selleckchem, cat. S1067), and gastrin (Tocris, cat. 3006).
[…]
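Note: spheroids exposed to the agents for seven days.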
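Throughout, for viability, T/C: percent of DMSO vehicle control viability which is 100%.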

C=CC(=O)N1CCN(c2nc(=O)n(-c3c(C)ccnc3C(C)C)c3nc(-c4c(O)cccc4F)c(F)cc23)C(C)C1 (configuration not stated) + CN(C)c1ccc(Nc2c3ccc(NC(=O)CCN4CCCC4)cc3nc3cc(NC(=O)CCN4CCCC4)ccc23)cc1
< 0.0316 µM: IC50 (second compound 10 µM)
inactive: viability, T/C (second compound 0.0316 µM, first compound 0.0316 µM) 109% | viability, T/C (second compound 0.0316 µM, first compound 0.1 µM) 88% | viability, T/C (second compound 0.0316 µM, first compound 0.316 µM) 94.9% | viability, T/C (second compound 0.0316 µM, first compound 1 µM) 92.5% | viability, T/C (second compound 0.0316 µM, first compound 3.16 µM) 106% | viability, T/C (second compound 0.0316 µM, first compound 10 µM) 81.8% | viability, T/C (second compound 0.1 µM, first compound 0.0316 µM) 98.1% | viability, T/C (second compound 0.1 µM, first compound 0.1 µM) 92% | viability, T/C (second compound 0.1 µM, first compound 0.316 µM) 97.7% | viability, T/C (second compound 0.1 µM, first compound 1 µM) 92.6% | viability, T/C (second compound 0.1 µM, first compound 3.16 µM) 97.2% | viability, T/C (second compound 0.1 µM, first compound 10 µM) 76% | viability, T/C (second compound 0.316 µM, first compound 0.0316 µM) 92.8% | viability, T/C (second compound 0.316 µM, first compound 0.1 µM) 95.4% | viability, T/C (second compound 0.316 µM, first compound 0.316 µM) 110% | viability, T/C (second compound 0.316 µM, first compound 1 µM) 110% | viability, T/C (second compound 0.316 µM, first compound 3.16 µM) 98.9% | viability, T/C (second compound 0.316 µM, first compound 10 µM) 76% | viability, T/C (second compound 1 µM, first compound 0.0316 µM) 95.5% | viability, T/C (second compound 1 µM, first compound 0.1 µM) 88.6% | viability, T/C (second compound 1 µM, first compound 0.316 µM) 100% | viability, T/C (second compound 1 µM, first compound 1 µM) 97.5% | viability, T/C (second compound 1 µM, first compound 3.16 µM) 104% | viability, T/C (second compound 1 µM, first compound 10 µM) 65.2% | viability, T/C (second compound 3.16 µM, first compound 0.0316 µM) 84.2% | viability, T/C (second compound 3.16 µM, first compound 0.1 µM) 85.1% | viability, T/C (second compound 3.16 µM, first compound 0.316 µM) 92.1% | viability, T/C (second compound 3.16 µM, first compound 1 µM) 84.5% | viability, T/C (second compound 3.16 µM, first compound 3.16 µM) 78.1% | viability, T/C (second compound 3.16 µM, first compound 10 µM) 51.3% | viability, T/C (second compound 10 µM, first compound 0.0316 µM) 34.3% | viability, T/C (second compound 10 µM, first compound 0.1 µM) 34.3% | viability, T/C (second compound 10 µM, first compound 0.316 µM) 35.2% | viability, T/C (second compound 10 µM, first compound 1 µM) 41% | viability, T/C (second compound 10 µM, first compound 3.16 µM) 37.3% | viability, T/C (second compound 10 µM, first compound 10 µM) 15.4%
> 10 µM: IC50 (second compound 0.0316 µM) | IC50 (second compound 0.1 µM) | IC50 (second compound 0.316 µM) | IC50 (second compound 1 µM) | IC50 (second compound 3.16 µM)
